According to patent publication US8791132B2, “Compounds and methods for treatment of hypertension” (Medivation Technologies, Inc., priority 2011, dated 2014):
Like-named read-outs stand apart in the source and are kept apart here.

Assays:
[1] = biological target: T1, human recombinant adrenergic α2A receptor (Homo sapiens, UniProt P08913); assay: Radioligand binding, adrenergic α2A ([3H]MK-912); conditions: for Percentage inhibition of ligand binding, Adrenergic α2A / inhibition at 0.1 µM / Percentage inhibition of ligand binding, Adrenergic α2A (0.1 μM) / inhibition at 0.03 µM: [3H]MK-912; for Percentage inhibition of ligand binding, Adrenergic α2A / Percentage inhibition of ligand binding, Adrenergic α2A (0.1 μM): 0.1 µM
T1 construct: expressed in transfected cells; host or cells: insect Sf9 cells
T1 sequence (P08913 1-465): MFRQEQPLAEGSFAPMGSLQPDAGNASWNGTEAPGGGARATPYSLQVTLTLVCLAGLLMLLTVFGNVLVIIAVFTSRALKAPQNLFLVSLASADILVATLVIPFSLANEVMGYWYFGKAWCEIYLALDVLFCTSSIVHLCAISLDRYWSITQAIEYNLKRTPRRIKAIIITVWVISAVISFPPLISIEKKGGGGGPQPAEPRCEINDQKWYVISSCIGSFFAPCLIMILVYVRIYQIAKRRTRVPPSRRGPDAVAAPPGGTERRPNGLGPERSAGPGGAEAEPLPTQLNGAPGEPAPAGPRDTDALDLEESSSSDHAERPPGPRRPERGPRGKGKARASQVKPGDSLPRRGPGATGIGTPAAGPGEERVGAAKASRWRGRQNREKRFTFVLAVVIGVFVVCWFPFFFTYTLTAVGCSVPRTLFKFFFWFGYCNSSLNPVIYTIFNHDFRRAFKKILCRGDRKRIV
Outline: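 Sf9-expressed receptor was incubated with compound for 60 min at 25 °C in modified Tris-HCl buffer, pH 7.4. Nonspecific binding was taken as that remaining with 10 μM WB-4101.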

[2] = biological target: T2, rat adrenergic α1B receptor (Rattus norvegicus, UniProt P15823); assay: Radioligand binding, adrenergic α1B ([3H]Prazosin); conditions: for inhibition at 0.03 µM / Percentage inhibition of ligand binding, Adrenergic α1B / inhibition at 0.1 µM / Percentage inhibition of ligand binding, Adrenergic α1B (0.1 μM): [3H]Prazosin
T2 construct: rat adrenergic α1B receptor obtained from Wistar Rat liver; from tissue; host or cells: Wistar rat liver
T2 sequence (P15823 1-515): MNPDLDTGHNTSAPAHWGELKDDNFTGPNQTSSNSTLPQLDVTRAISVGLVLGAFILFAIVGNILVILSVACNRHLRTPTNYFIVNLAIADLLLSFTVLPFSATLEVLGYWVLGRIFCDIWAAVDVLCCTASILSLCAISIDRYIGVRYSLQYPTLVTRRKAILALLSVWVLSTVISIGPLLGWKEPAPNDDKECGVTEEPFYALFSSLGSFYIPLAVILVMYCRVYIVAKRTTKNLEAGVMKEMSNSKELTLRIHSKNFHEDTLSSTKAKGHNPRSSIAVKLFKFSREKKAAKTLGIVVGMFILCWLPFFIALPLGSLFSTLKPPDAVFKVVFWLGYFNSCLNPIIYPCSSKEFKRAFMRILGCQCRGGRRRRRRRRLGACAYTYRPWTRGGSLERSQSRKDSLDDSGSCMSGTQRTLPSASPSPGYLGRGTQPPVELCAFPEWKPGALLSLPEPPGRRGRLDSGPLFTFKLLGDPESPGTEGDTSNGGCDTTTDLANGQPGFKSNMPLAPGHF
Outline: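 Incubation ran 60 min at 25 °C in Tris-HCl buffer (50 mM, pH 7.4, 0.5 mM EDTA) with Wistar rat liver α1B receptor. 10 μM phentolamine set non-specific binding.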

[3] = biological target: T3, human recombinant adrenergic α1D receptor (Homo sapiens, UniProt P25100); assay: Radioligand binding, adrenergic α1D ([3H]Prazosin); conditions: [3H]Prazosin
T3 construct: expressed in transfected cells; host or cells: HEK-293
T3 sequence (P25100 1-572): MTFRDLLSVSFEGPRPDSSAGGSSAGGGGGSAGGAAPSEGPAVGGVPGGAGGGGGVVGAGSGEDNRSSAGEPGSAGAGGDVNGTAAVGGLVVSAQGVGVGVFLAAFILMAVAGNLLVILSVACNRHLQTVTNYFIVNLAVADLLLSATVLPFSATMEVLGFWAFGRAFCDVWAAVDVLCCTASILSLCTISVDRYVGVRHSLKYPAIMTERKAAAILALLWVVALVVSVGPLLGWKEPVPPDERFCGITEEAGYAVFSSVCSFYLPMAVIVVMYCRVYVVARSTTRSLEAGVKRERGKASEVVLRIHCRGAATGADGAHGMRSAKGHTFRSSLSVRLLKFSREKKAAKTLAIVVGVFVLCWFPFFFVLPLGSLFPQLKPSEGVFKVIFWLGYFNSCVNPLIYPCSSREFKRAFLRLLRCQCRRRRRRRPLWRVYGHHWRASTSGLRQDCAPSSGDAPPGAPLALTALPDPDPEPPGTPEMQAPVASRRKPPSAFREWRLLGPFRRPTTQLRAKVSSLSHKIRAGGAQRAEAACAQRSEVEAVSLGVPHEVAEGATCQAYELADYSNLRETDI
Protocol: Compounds were incubated with 0.6 nM [3H]Prazosin for 60 min at 25° C. Non-specific binding was estimated in the presence of 10 μM phentolamine. Receptor proteins were filtered and washed, the filters were then counted to determine [3H]Prazosin specifically bound. […] Biochemical assay results are presented as the percent inhibition of specific binding in Table B1.

[4] = compound at 0.1 μM, repeat assays, each datapoint shown
[5] = compound at 0.1 μM, repeat assays, each datapoint shown, read-out: Percentage inhibition of ligand binding, Adrenergic α2A
[6] = compound at 0.03 μM, repeat assays, each datapoint shown, read-out: Percentage inhibition of ligand binding, Adrenergic α1B
[7] = compound at 0.1 μM, repeat assays, each datapoint shown, 0.1 µM
[8] = compound at 0.1 μM, repeat assays, each datapoint shown, read-out: Percentage inhibition of ligand binding, Adrenergic α1B
[9] = compound at 0.03 μM, repeat assays, each datapoint shown, read-out: Percentage inhibition of ligand binding, Adrenergic α1D
[10] = compound at 0.1 μM, repeat assays, each datapoint shown, read-out: Percentage inhibition of ligand binding, Adrenergic α1D
[11] = compound at 0.1 μM, repeat datapoints each shown
[12] = read-out: Percentage inhibition of ligand binding, Adrenergic α2A (0.1 μM), compound at 0.1 μM, repeat datapoints each shown
[13] = compound at 0.1 μM, repeat datapoints each shown, 0.1 µM
[14] = read-out: Percentage inhibition of ligand binding, Adrenergic α1B (0.1 μM), compound at 0.1 μM, repeat datapoints each shown
[15] = read-out: Percentage inhibition of ligand binding, Adrenergic α1D (0.1 μM), compound at 0.1 μM, repeat datapoints each shown
[16] = compound at 0.03 μM, repeat assays, each datapoint shown, read-out: Percentage inhibition of ligand binding, Adrenergic α2A
[17] = compound at 0.03 μM, repeat assays, each datapoint shown, 0.03 µM
[18] = read-out: Percentage inhibition of ligand binding, Adrenergic α1B (0.03 μM), compound at 0.03 μM, repeat datapoints each shown
[19] = read-out: Percentage inhibition of ligand binding, Adrenergic α1D (0.03 μM), compound at 0.03 μM, repeat datapoints each shown

| Compound | inhibition at 0.1 µM [1, 5] [%] | inhibition at 0.03 µM [2, 6] [%] | Percentage inhibition of ligand binding, Adrenergic α1B [2, 7] [%] | inhibition at 0.1 µM [2, 8] [%] | inhibition at 0.1 µM [3, 10] [%] | Percentage inhibition of ligand binding, Adrenergic α2A (0.1 μM) [1, 11] [%] | inhibition at 0.1 µM [1, 12] [%] | Percentage inhibition of ligand binding, Adrenergic α1B (0.1 μM) [2, 13] [%] | inhibition at 0.1 µM [2, 14] [%] | inhibition at 0.1 µM [3, 15] [%] | further results |
| --- | --- | --- | --- | --- | --- | --- | --- | --- | --- | --- | --- |
| Cc1cnc2c(c1)c1c(n2CCc2ccc(C)nc2)CCN2CCCC12 (single isomer, unassigned) [74a, 10-methyl-7-(2-(6-methylpyridin-3-yl)ethyl)-2,3,5,6,7,11c-hexahydro-1H-pyrido[3′,2′:4,5]pyrrolo[2,3-g]indolizine] | 22 | 81 | 96 | 91 | 61 |  |  |  |  |  | Ki [1]: 0.234 µM; Percentage inhibition of ligand binding, Adrenergic α2A [1, 4]: 27%; Ki [2]: 0.00472 µM; inhibition at 0.03 µM [3, 9]: 42% |
| Cc1cnc2c(c1)c1c(n2CCc2ccc(C)nc2)CCN(C)C1 [II-110, 3,6-dimethyl-9-(2-(6-methylpyridin-3-yl)ethyl)-6,7,8,9-tetrahydro-5H-pyrrolo[2,3-b:4,5-c′]dipyridine] |  |  |  |  |  | 2 | 1 | 36 | 25 | 17 |  |
| Cc1ccc2c(c1)c1c(n2CC2(c3ccccc3)OCCO2)CCN(C)C1 [compound 83] | 21 |  | 15 | 9 | 13 |  |  |  |  |  | Percentage inhibition of ligand binding, Adrenergic α2A [1, 4]: 29% |
| CCN1CCc2c(c3cc(C)ccc3n2CCc2ccncc2)C1 [compound 85] | 12 | -3 |  | 26 | 17 |  |  |  |  |  |  |
| Cc1ccc2c(c1)c1c(n2CCc2ccc(CO)nc2)CCN(C)C1 [compound 91] | 5 | 25 | 53 | 52 | 25 |  |  |  | 58 | 32 | inhibition at 0.03 µM [1, 16]: 6%; Percentage inhibition of ligand binding, Adrenergic α1B [2, 17]: 28%; inhibition at 0.03 µM [2, 18]: 32%; Percentage inhibition of ligand binding, Adrenergic α1D [3, 17]: 11%; inhibition at 0.03 µM [3, 9]: 7%; Percentage inhibition of ligand binding, Adrenergic α1D [3, 7]: 30%; inhibition at 0.03 µM [3, 19]: 21% |
| C/C(=C\n1c2c(c3cc(C)ccc31)CN(C)CC2)c1ccncn1 [compound 101] |  |  |  |  |  | 15 | 14 | 79 | 61 | 45 | Percentage inhibition of ligand binding, Adrenergic α1D (0.1 μM) [3, 13]: 48% |
| Cc1ccc2c(c1)c1c(n2C2=C(c3ccncc3)CCC2)CCN(C)C1 [compound 114] |  |  |  |  |  |  | 21 |  | 15 | 15 |  |

Continued, in another order:

| inhibition at 0.1 µM [1, 5] [%] | inhibition at 0.03 µM [2, 6] [%] | Percentage inhibition of ligand binding, Adrenergic α1B [2, 7] [%] | inhibition at 0.1 µM [2, 8] [%] | inhibition at 0.1 µM [3, 10] [%] | Percentage inhibition of ligand binding, Adrenergic α2A (0.1 μM) [1, 11] [%] | inhibition at 0.1 µM [1, 12] [%] | Percentage inhibition of ligand binding, Adrenergic α1B (0.1 μM) [2, 13] [%] | inhibition at 0.1 µM [2, 14] [%] | inhibition at 0.1 µM [3, 15] [%] | Compound | further results |
| --- | --- | --- | --- | --- | --- | --- | --- | --- | --- | --- | --- |
|  | 24 | 54 | 51 | 12 |  |  |  |  |  | Cc1ccc2c(c1)c1c(n2CC(O)c2ccncc2)CCN(C)C1 (centres unmarked) [compound 3] | Ki [1]: 0.00026 µM; inhibition at 0.03 µM [1, 16]: 4% |
| 13 |  | 21 | 14 | 4 |  |  |  |  |  | Cc1ccc2c(c1)c1c(n2CC(C)(O)c2cccnc2)CCN(C)C1 (centres unmarked) [compound 5, 1-(1,2,3,4-tetrahydro-2,8-dimethylpyrido[4,3-b]indol-5-yl)-2-(pyridin-3-yl)propan-2-ol] |  |
| 30 | 28 |  | 60 | 37 |  |  |  |  |  | Cc1ccc2c(c1)c1c(n2CCc2cccnc2)CCN(C)C1 [compound 61] | inhibition at 0.03 µM [3, 9]: 14% |
|  |  |  |  |  | 32 | 26 | 83 | 81 | 31 | Cc1ccc2c(c1)c1c(n2CC(C)(O)c2ccc(O)cc2)CCN(C)C1 (centres unmarked) [compound 98] | Percentage inhibition of ligand binding, Adrenergic α1D (0.1 μM) [3, 13]: 35% |
|  |  |  |  |  | 48 | 45 | 22 | 21 | 14 | Cc1ccc2c(c1)c1c(n2CNc2ccccn2)CCN(C)C1 [compound 120, (2,8-dimethyl-1,2,3,4-tetrahydro-pyrido[4,3-b]indol-5-ylmethyl)-pyridin-2-yl-amine] | Ki [1]: 0.0658 µM; inhibition at 0.03 µM ([1]; read-out: Percentage inhibition of ligand binding, Adrenergic α2A (0.03 μM), compound at 0.03 μM, repeat datapoints each shown): 25%; inhibition at 0.03 µM [2, 18]: 4%; Percentage inhibition of ligand binding, Adrenergic α1D (0.1 μM) [3, 13]: 26%; inhibition at 0.03 µM [3, 19]: 3% |
